In patent US20100184113A1, “CONTROLLING OSTEOGENESIS BY INHIBITION OF OSTEOGENIC SUPPRESSORS” (The Scripps Research Institute Office of Patent Counsel, priority 2006, published 2010):

Experiments:
Type in all cases: cell-based, human
hMSCs [1] = experiment: Compound treatment on OS-induced osteogenic differentiation of hMSCs (ALP / alizarin red staining); conditions: for osteogenic differentiation of hMSCs combined with OS treatment: compound plus OS media
Protocol: (§1) 8-CPT-cAMP, Na (cat# 116812), 5-Iodotubercidin (cat# 407900), Prostaglandin E2 (PGE2, cat# 538904), SB 202190 (cat# 559388) and U0126 (cat# 662005) were purchased from Calbiochem; N6,2′-O-Dibutyryl-cAMP (cat# D0260-5MG), forskolin (cat# F6886), ascorbic acid 2-phosphate (cat# 49752-10G), (3-glycerophosphate (G-6251), dexamethasone (D8893), 3-isobutyl-1-methylxanthine (IBMX, 15879) and Insulin (19278) were purchased from Sigma/Aldrich/Fluka.
(§2) Since the targeted genes are all positively involved in intracellular cAMP signaling, we tested the effect of two compounds of opposing function on cAMP production on osteogenic differentiation of hMSCs, ADK inhibitor 5-iodotubercidin and ADCY activator forskolin (Cottam, H. B. et al., J Med Chem 36:3424-3430 (1993); de Souza, N. J. et al., Med Res Rev 3:201-219 (1983)). […] ATP has been shown as a ligand for P2RY11 receptor (Communi et al., 1997). […] The present observations are consistent with the conclusion that […] in hMSCs, and vice versa.

hMSCs [2] = experiment: Adipogenic differentiation of hMSCs, Oil Red O staining; conditions: for differentiation of hMSCs into mature adipocytes: cAMP analog combined with dexamethasone; for cell fate commitment osteogenic vs adipogenic: compound combined with the OS media; for adipogenic differentiation of hMSCs, cAMP-raising compounds: compound treatment, especially in the presence of dexamethasone (FIG. 7b)
Protocol: Cells were rinsed with PBS twice, fixed in 10% formalin solution for 20 minutes, rinsed with PBS twice and dH2O once, washed with propylene glycol for 5 minutes, and stained with Oil red in propylene glycol (12722A, Newcomer Supply) for 30 minutes. Cells were then washed with 85% propylene glycol for 5 minutes, rinsed with dH2O 3 times and preserved in 50% glycerol.
as §1
Bone cell maturation is accompanied by extracellular matrix (ECM) mineralization (John Bilezikian et al., Principles of bone biology, Vol 1, 2nd edn: Academic Press) (2002)). To examine whether the osteogenic differentiation of hMSCs induced by the hit siRNAs can further proceed to the maturation stage, hit siRNA treated cells were cultured for 20 days. […] These observations are consistent with the conclusion that the targeted genes of the ten effective hit siRNAs not only play inhibitory roles in osteogenic specification of hMSCs, but also in bone cell maturation. […] Furthermore, in osteoporotic patients, the number of adipocytes was increased in the marrow, implying a change of cell fate disposition from osteoblast lineage to adipocyte lineage (Justesen, J. et al., Biogerontology 2:165-171 (2001); Meunier, P. et al., Clin Orthop Relat Res 80:147-154 (1971)). We therefore examined the effect of our hit siRNAs on adipogenic differentiation of hMSCs by combined treatment with an adipogenic inducing cocktail (100 μg/ml BMX, 1 μM DEX and 10 μg/ml insulin).
as §2

hMSCs [3] = experiment: Alizarin red staining for calcium phosphate deposits (ECM mineralization, bone cell maturation); conditions: for intensity of alizarin red staining: OS treatment started three days after siRNA transfection and continued for 9 days (3+9OS), vs siCon
CREB = experiment: Western blot of active (phosphorylated) CREB; conditions: 3 days after transfection, vs siCon treated or untreated
Protocol: Cell lyses buffer contains 20 mM Tris pH8.0, 1 mM EDTA, 150 mM NaCl and 0.5% NP-40, and before usage, protease inhibitor cocktail (Cat# p8340, Sigma, 1:100 dilution) and phosphatase inhibitor cocktail 2 (Cat# p5726, sigma, 1:100 dilution) were added. Proteins (60 μg/well) were separated in 12% Novex Tris-Glycine gel (Cat# EC6008 box, Invitrogen) and transferred to Nitrocellulose membrane (Cat# LC2001, Invitrogen) using the XCell II blot module system (Cat# E19051, Invitrogen). The membrane was blocked in 5% milk/PBST for 1 hour at room temperature, incubated over night at 4 degree with primary antibody, washed 3 times with PBST (0.05% Tween 20 in PBS), followed by one hour incubation with secondary antibody in 5% milk/PBST and 3 times wash with PBST at room temperature. For antibody against pCREB however, PBST was substituted with PBS in all steps except for the last one. Antibody-bound proteins were detected utilizing ECL Western blotting detection reagent (Amersham Biosciences).
Anti-phospho-CREB was purchased from Upstate Biotechnology (cat# 06-519); Anti-phospho-p38 was purchased from Cell signaling technology (cat# 9910).
To find out whether CREB (cAMP Responding Element Binding protein), a common downstream effector of cAMP signaling pathway, is involved in mediating cAMP signaling controlled differentiation of hMSCs, we checked the expression level of the active form of CREB proteins in cells 3 days after siP2RY11, siADK, siGNAS, siSLC12a2 or siCon transfection. […] To further examine the role of CREB in osteogenesis and adipogenesis, a synthetic 24-mer CRE decoy oligonucleotide that can compete with endogenous CRE enhancers for binding proteins was transfected into hMSCs (Park, Y. G. et al., J Biol Chem 274:1573-1580 (1999)), which were then subjected to the treatment of osteogenic or adipogenic induction media.

Nc1ncnc2c1c(I)cn2[C@@H]1O[C@H](CO)[C@@H](O)[C@H]1O [5-iodotubercidin]
osteogenic differentiation of hMSCs combined with OS treatment (hMSCs [1]): significantly enhanced the osteogenic differentiation of hMSCs | adipogenic differentiation of hMSCs under compound (hMSCs [2]; compound plus adipogenic inducing media, oil red o staining (FIG. 7a j-l)): inhibited the adipogenic differentiation of hMSCs in a dose dependent manner

Nc1ncnc2c1nc(Sc1ccc(Cl)cc1)n2[C@@H]1O[C@@H]2COP(=O)(O)O[C@H]2[C@H]1O [8-CPT-cAMP]
differentiation of hMSCs into mature adipocytes (hMSCs [2]): sufficient to differentiate hMSCs into mature adipocytes | cell fate commitment osteogenic vs adipogenic (hMSCs [2]): could switch cell fate commitment from osteogenic to adipogenic | adipogenic differentiation of hMSCs, cAMP-raising compounds (hMSCs [2]): promoted hMSCs to undergo adipogenic differentiation

Nc1ncnc2c1ncn2[C@@H]1O[C@H](COP(=O)(O)OP(=O)(O)OP(=O)(O)O)[C@@H](O)[C@H]1O [ATP]
siP2RY11 and siSLC12a2 induced osteogenesis in combination with OS (hMSCs [1]; OS and ATP added on third day after siRNA transfection, continued for a week, ALP staining): dosage-dependent inhibitory effect | osteogenic differentiation of hMSCs combined with OS treatment (hMSCs [1]): inhibited the OS-induced osteogenesis of hMSCs | number of cells undergoing adipogenic differentiation (hMSCs [2]; ATP treatment of OS-treated hMSCs): slightly increases

CCCC(=O)Nc1ncnc2c1ncn2[C@@H]1O[C@@H]2COP(=O)(O)O[C@H]2[C@H]1OC(=O)CCC [DB-cAMP, N6,2′-dibutyryl-cAMP]
differentiation of hMSCs into mature adipocytes (hMSCs [2]): sufficient to differentiate hMSCs into mature adipocytes | adipogenic differentiation of hMSCs, cAMP-raising compounds (hMSCs [2]): promoted hMSCs to undergo adipogenic differentiation

CC(C)Cn1c(=O)n(C)c(=O)c2[nH]cnc21 [IBMX, 3-isobutyl-1-methylxanthine]
cell fate commitment osteogenic vs adipogenic (hMSCs [2]): could switch cell fate determination from osteogenic to adipogenic differentiation | adipogenic differentiation of hMSCs, cAMP-raising compounds (hMSCs [2]): promoted hMSCs to undergo adipogenic differentiation

COc1cccc(-c2cc(=O)c3ccccc3o2)c1N [PD98059]
osteogenic differentiation of hMSCs combined with OS treatment (hMSCs [1]): inhibited the osteogenic inducing effect of OS

CCCCC[C@H](O)/C=C/[C@H]1[C@H](O)CC(=O)[C@@H]1C/C=C\CCCC(=O)O [PGE2, Prostaglandin E2]
cell fate commitment osteogenic vs adipogenic (hMSCs [2]): could switch cell fate determination from osteogenic to adipogenic differentiation

Oc1ccc(-c2nc(-c3ccncc3)c(-c3ccc(F)cc3)[nH]2)cc1 [SB202190]
osteogenic differentiation of hMSCs combined with OS treatment (hMSCs [1]): inhibited the osteogenic inducing effect of OS

siADCY8: siRNA GGAGAUCAACAAGCAUUCA targeting adenylate cyclase 8 (listed as RNA, chemistry not given here)
intensity of alizarin red staining (hMSCs [3]): weak enhancement

siADK: siRNA GCCACACAAAGCAGCAACA targeting adenosine kinase (listed as RNA, chemistry not given here)
level of pCREB protein (CREB): increased | intensity of alizarin red staining (hMSCs [3]): dramatically enhanced | intensity of alizarin red staining, sequential treatment (hMSCs [3]; siRNA (initial 2-4 days) followed by OS media, vs control treatment (FIG. 4)): clearly enhanced the intensity of alizarin red staining

siBCL212: siRNA CCCAGGUCUCCGAUGAACU targeting BCL2-like 2 (listed as RNA, chemistry not given here)
intensity of alizarin red staining (hMSCs [3]): modest enhancement

siBIRC4: siRNA UGUGCUACACAGUCAUUAC targeting baculoviral IAP repeat-containing 4 (listed as RNA, chemistry not given here)
intensity of alizarin red staining (hMSCs [3]): weak enhancement

siGBDR1: siRNA CCCGAAAACAUUGCUAGCA targeting putative glialblastoma cell differentiation-related (listed as RNA, chemistry not given here)
intensity of alizarin red staining (hMSCs [3]): dramatically enhanced

siGNAS: siRNA UCGAAGAUUGAGGACUACU targeting GNAS complex locus (listed as RNA, chemistry not given here)
level of pCREB protein (CREB): increased | intensity of alizarin red staining (hMSCs [3]): dramatically enhanced

siKCNT1: siRNA UGCGAGCCAAGAUGGACAA targeting potassium channel, subfamily T, member 1 (listed as RNA, chemistry not given here)
intensity of alizarin red staining (hMSCs [3]): dramatically enhanced

siP2RY11: siRNA UGCGGGUGCUCAACGUGGA targeting purinergic receptor P2Y, G-protein coupled, 11 (listed as RNA, chemistry not given here)
level of pCREB protein (CREB): increased | intensity of alizarin red staining (hMSCs [3]): dramatically enhanced

siSLC12a2: siRNA CCUCUUCGUGGCUACAUCU targeting solute carrier family 12, member 2 (listed as RNA, chemistry not given here)
level of pCREB protein (CREB): increased | intensity of alizarin red staining (hMSCs [3]): dramatically enhanced

siTBX3: siRNA UGCCAAAGAGGAUGUACAU targeting T-box 3 (ulnar mammary syndrome) (listed as RNA, further chemistry not given here)
intensity of alizarin red staining (hMSCs [3]): no significant effect
